Assay results: PubChem BioAssay (NCI)
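Method: 48-hour compound exposure of cells in 96-well plates, five concentrations, linear interpolation of endpoints. At the TGI there is no net growth.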

These compounds were tested on SNB-75 CNS (assay: DTP human tumour cell line panel, 48 h).

| Structure (SMILES) | TGI [µM] |
| --- | --- |
| Cn1c2c(c3ccccc31)CCN1C(=O)CN(C(=O)C3CCCCC3)CC21 (stereo unspecified) | > 100 |
| CCCC(=O)N1CCN(c2ccc3c(c2)OC(C)O3)CC1 (stereo unspecified) | > 100 |
| CCOC(=O)[C@H](C)OC(=O)[C@@](C)(NC(=O)c1ccccc1C(=O)OC)[C@@H]1NC=C(C(=O)OC)CS1 | > 100 |
| CC(C)=CCC/C(C)=C/CC/C(C)=C/CC(CO)N(C)CC/C=C(\C)CCC=C(C)C (stereo unspecified) | 25 |
| C=C1CC/C=C(\C)CCC[C@H](C)[C@@H](O)[C@@H]2OC(=O)C(=C)[C@@H]2C[C@H]1O | 24.7 |
| Cn1c2ccccc2c(=O)c2cccc(C(=O)NC(CS)C(=O)O)c21 (stereo unspecified) | > 100 |
| CCOC(=O)c1sc2c(c1OC(=O)c1ccc(OC)cc1)c(=O)n(-c1ccccc1)c(=S)n2-c1ccccc1 | > 100 |
| COc1ccc(-c2cc3ccccc3oc2=O)cc1OC | > 100 |
| O=C(Cn1c(-c2ccccc2)cc2ccccc21)N1CCCC1 | > 100 |
| CC1CN=C(N(C(=O)Nc2ccc(Cl)c(Cl)c2)c2ccccc2)S1 (stereo unspecified) | > 100 |
| COC(=O)NC(C(F)(F)F)(C(F)(F)F)P1(=O)OCCCO1 | > 100 |
| CCOC(=O)NNC(=O)NCCCCNC(=O)NNC(=O)OCC | > 100 |
| CC(C)(C)OC/C=C(/CO)[C@@H]1C=C[C@H](O)C1 | > 100 |
| Nc1ccn([C@H]2CO[C@@H](CO)[C@@H]2O)c(=O)n1 | > 100 |
| O=C(CC(C(=O)c1ccsc1)c1ccccc1)c1ccccc1 (stereo unspecified) | > 100 |
| CC(C)C(C/C=C1\CC(CO)(COC(=O)C(C)(C)C)OC1=O)C(C)C (stereo unspecified) | 15.2 |
| COC(C)(C)OCCN1CCN(CCN2C3=C(C=C(C(C)=O)C3)Sc3ccccc32)CC1 | > 100 |
| CC(=O)O[C@H]1CC[C@@]2(C)C(=CC[C@H]3[C@@H]4C/C(=C\c5ccc(N(C)C)cc5)[C@H](OC(C)=O)[C@@]4(C)CC[C@@H]32)C1 | > 100 |

The compounds below were run on MOLT-4 leukemia (assay: DTP human tumour cell line panel, 48 h).

| Structure (SMILES) | TGI [µM] |
| --- | --- |
| O=C(N(O)c1ccccc1Cl)C(O)(c1ccccc1)c1ccccc1 | > 100 |
| Cn1c2c(c3ccccc31)CCN1C(=O)CN(C(=O)C3CCCCC3)CC21 (stereo unspecified) | > 100 |
| CCCC(=O)N1CCN(c2ccc3c(c2)OC(C)O3)CC1 (stereo unspecified) | > 100 |
| COC(=O)C1=C(O)c2ccc(Cl)cc2S(=O)(=O)N1C | > 100 |
| CCOC(=O)[C@H](C)OC(=O)[C@@](C)(NC(=O)c1ccccc1C(=O)OC)[C@@H]1NC=C(C(=O)OC)CS1 | > 100 |
| CC(C)=CCC/C(C)=C/CC/C(C)=C/CC(CO)N(C)CC/C=C(\C)CCC=C(C)C (stereo unspecified) | 6.69 |
| C=C1CC/C=C(\C)CCC[C@H](C)[C@@H](O)[C@@H]2OC(=O)C(=C)[C@@H]2C[C@H]1O | 9.62 |
| Cn1c2ccccc2c(=O)c2cccc(C(=O)NC(CS)C(=O)O)c21 (stereo unspecified) | > 100 |
| CCOC(=O)c1sc2c(c1OC(=O)c1ccc(OC)cc1)c(=O)n(-c1ccccc1)c(=S)n2-c1ccccc1 | > 100 |
| COc1ccc(-c2cc3ccccc3oc2=O)cc1OC | > 100 |
| O=C(Cn1c(-c2ccccc2)cc2ccccc21)N1CCCC1 | > 100 |
| CC1CN=C(N(C(=O)Nc2ccc(Cl)c(Cl)c2)c2ccccc2)S1 (stereo unspecified) | > 100 |
| COC(=O)NC(C(F)(F)F)(C(F)(F)F)P1(=O)OCCCO1 | > 100 |
| CCOC(=O)NNC(=O)NCCCCNC(=O)NNC(=O)OCC | > 100 |
| CC(C)(C)OC/C=C(/CO)[C@@H]1C=C[C@H](O)C1 | > 100 |
| Nc1ccn([C@H]2CO[C@@H](CO)[C@@H]2O)c(=O)n1 | > 100 |
| O=C(CC(C(=O)c1ccsc1)c1ccccc1)c1ccccc1 (stereo unspecified) | > 100 |
| CC(C)C(C/C=C1\CC(CO)(COC(=O)C(C)(C)C)OC1=O)C(C)C (stereo unspecified) | 25 |
| COC(C)(C)OCCN1CCN(CCN2C3=C(C=C(C(C)=O)C3)Sc3ccccc32)CC1 | 36.7 |
| CC(=O)O[C@H]1CC[C@@]2(C)C(=CC[C@H]3[C@@H]4C/C(=C\c5ccc(N(C)C)cc5)[C@H](OC(C)=O)[C@@]4(C)CC[C@@H]32)C1 | > 100 |

The compounds below were run on IGROV1 ovarian (assay: DTP human tumour cell line panel, 48 h).

| Structure (SMILES) | TGI [µM] |
| --- | --- |
| O=C(N(O)c1ccccc1Cl)C(O)(c1ccccc1)c1ccccc1 | > 100 |
| Cn1c2c(c3ccccc31)CCN1C(=O)CN(C(=O)C3CCCCC3)CC21 (stereo unspecified) | > 100 |
| CCCC(=O)N1CCN(c2ccc3c(c2)OC(C)O3)CC1 (stereo unspecified) | > 100 |
| COC(=O)C1=C(O)c2ccc(Cl)cc2S(=O)(=O)N1C | > 100 |
| CCOC(=O)[C@H](C)OC(=O)[C@@](C)(NC(=O)c1ccccc1C(=O)OC)[C@@H]1NC=C(C(=O)OC)CS1 | > 100 |
| CC(C)=CCC/C(C)=C/CC/C(C)=C/CC(CO)N(C)CC/C=C(\C)CCC=C(C)C (stereo unspecified) | 16 |
| C=C1CC/C=C(\C)CCC[C@H](C)[C@@H](O)[C@@H]2OC(=O)C(=C)[C@@H]2C[C@H]1O | 13.8 |
| Cn1c2ccccc2c(=O)c2cccc(C(=O)NC(CS)C(=O)O)c21 (stereo unspecified) | > 100 |
| CCOC(=O)c1sc2c(c1OC(=O)c1ccc(OC)cc1)c(=O)n(-c1ccccc1)c(=S)n2-c1ccccc1 | > 100 |
| COc1ccc(-c2cc3ccccc3oc2=O)cc1OC | > 100 |
| O=C(Cn1c(-c2ccccc2)cc2ccccc21)N1CCCC1 | > 100 |
| CC1CN=C(N(C(=O)Nc2ccc(Cl)c(Cl)c2)c2ccccc2)S1 (stereo unspecified) | > 100 |
| COC(=O)NC(C(F)(F)F)(C(F)(F)F)P1(=O)OCCCO1 | 68.8 |
| CCOC(=O)NNC(=O)NCCCCNC(=O)NNC(=O)OCC | > 100 |
| Nc1ccn([C@H]2CO[C@@H](CO)[C@@H]2O)c(=O)n1 | > 100 |
| O=C(CC(C(=O)c1ccsc1)c1ccccc1)c1ccccc1 (stereo unspecified) | > 100 |
| CC(C)C(C/C=C1\CC(CO)(COC(=O)C(C)(C)C)OC1=O)C(C)C (stereo unspecified) | 29.4 |
| COC(C)(C)OCCN1CCN(CCN2C3=C(C=C(C(C)=O)C3)Sc3ccccc32)CC1 | 35.5 |
| CC(=O)O[C@H]1CC[C@@]2(C)C(=CC[C@H]3[C@@H]4C/C(=C\c5ccc(N(C)C)cc5)[C@H](OC(C)=O)[C@@]4(C)CC[C@@H]32)C1 | 28.4 |

What follows are compounds tested on HL-60(TB) leukemia (assay: DTP human tumour cell line panel, 48 h).

| Structure (SMILES) | TGI [µM] |
| --- | --- |
| O=C(N(O)c1ccccc1Cl)C(O)(c1ccccc1)c1ccccc1 | 64.7 |
| Cn1c2c(c3ccccc31)CCN1C(=O)CN(C(=O)C3CCCCC3)CC21 (stereo unspecified) | > 100 |
| COC(=O)C1=C(O)c2ccc(Cl)cc2S(=O)(=O)N1C | > 100 |
| C=C1CC/C=C(\C)CCC[C@H](C)[C@@H](O)[C@@H]2OC(=O)C(=C)[C@@H]2C[C@H]1O | > 100 |
| Cn1c2ccccc2c(=O)c2cccc(C(=O)NC(CS)C(=O)O)c21 (stereo unspecified) | 38.9 |
| CCOC(=O)c1sc2c(c1OC(=O)c1ccc(OC)cc1)c(=O)n(-c1ccccc1)c(=S)n2-c1ccccc1 | > 100 |
| COc1ccc(-c2cc3ccccc3oc2=O)cc1OC | > 100 |
| COC(=O)NC(C(F)(F)F)(C(F)(F)F)P1(=O)OCCCO1 | 51.1 |
| CCOC(=O)NNC(=O)NCCCCNC(=O)NNC(=O)OCC | > 100 |
| O=C(CC(C(=O)c1ccsc1)c1ccccc1)c1ccccc1 (stereo unspecified) | 23 |
| COC(C)(C)OCCN1CCN(CCN2C3=C(C=C(C(C)=O)C3)Sc3ccccc32)CC1 | 35.8 |
| CC(=O)O[C@H]1CC[C@@]2(C)C(=CC[C@H]3[C@@H]4C/C(=C\c5ccc(N(C)C)cc5)[C@H](OC(C)=O)[C@@]4(C)CC[C@@H]32)C1 | 41.2 |

Each compound was assayed on MCF7 breast (assay: DTP human tumour cell line panel, 48 h).

| Structure (SMILES) | TGI [µM] |
| --- | --- |
| O=C(N(O)c1ccccc1Cl)C(O)(c1ccccc1)c1ccccc1 | > 100 |
| Cn1c2c(c3ccccc31)CCN1C(=O)CN(C(=O)C3CCCCC3)CC21 (stereo unspecified) | > 100 |
| CCCC(=O)N1CCN(c2ccc3c(c2)OC(C)O3)CC1 (stereo unspecified) | > 100 |
| COC(=O)C1=C(O)c2ccc(Cl)cc2S(=O)(=O)N1C | > 100 |
| CCOC(=O)[C@H](C)OC(=O)[C@@](C)(NC(=O)c1ccccc1C(=O)OC)[C@@H]1NC=C(C(=O)OC)CS1 | > 100 |
| CC(C)=CCC/C(C)=C/CC/C(C)=C/CC(CO)N(C)CC/C=C(\C)CCC=C(C)C (stereo unspecified) | 4.8 |
| C=C1CC/C=C(\C)CCC[C@H](C)[C@@H](O)[C@@H]2OC(=O)C(=C)[C@@H]2C[C@H]1O | > 42.7 |
| Cn1c2ccccc2c(=O)c2cccc(C(=O)NC(CS)C(=O)O)c21 (stereo unspecified) | > 100 |
| CCOC(=O)c1sc2c(c1OC(=O)c1ccc(OC)cc1)c(=O)n(-c1ccccc1)c(=S)n2-c1ccccc1 | > 100 |
| COc1ccc(-c2cc3ccccc3oc2=O)cc1OC | > 100 |
| O=C(Cn1c(-c2ccccc2)cc2ccccc21)N1CCCC1 | > 100 |
| CC1CN=C(N(C(=O)Nc2ccc(Cl)c(Cl)c2)c2ccccc2)S1 (stereo unspecified) | > 100 |
| COC(=O)NC(C(F)(F)F)(C(F)(F)F)P1(=O)OCCCO1 | > 100 |
| CC(C)(C)OC/C=C(/CO)[C@@H]1C=C[C@H](O)C1 | > 100 |
| Nc1ccn([C@H]2CO[C@@H](CO)[C@@H]2O)c(=O)n1 | > 100 |
| O=C(CC(C(=O)c1ccsc1)c1ccccc1)c1ccccc1 (stereo unspecified) | > 100 |
| CC(C)C(C/C=C1\CC(CO)(COC(=O)C(C)(C)C)OC1=O)C(C)C (stereo unspecified) | 37.6 |
| CC(=O)O[C@H]1CC[C@@]2(C)C(=CC[C@H]3[C@@H]4C/C(=C\c5ccc(N(C)C)cc5)[C@H](OC(C)=O)[C@@]4(C)CC[C@@H]32)C1 | 26.6 |

What follows are compounds tested on U251 CNS (assay: DTP human tumour cell line panel, 48 h).

| Structure (SMILES) | TGI [µM] |
| --- | --- |
| O=C(N(O)c1ccccc1Cl)C(O)(c1ccccc1)c1ccccc1 | > 100 |
| Cn1c2c(c3ccccc31)CCN1C(=O)CN(C(=O)C3CCCCC3)CC21 (stereo unspecified) | > 100 |
| CCCC(=O)N1CCN(c2ccc3c(c2)OC(C)O3)CC1 (stereo unspecified) | > 100 |
| COC(=O)C1=C(O)c2ccc(Cl)cc2S(=O)(=O)N1C | > 100 |
